In PubChem BioAssay (NCI):
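1) Cells in 96-well plates. 2) Compound, 48 h, 5 concentrations. 3) Linear interpolation between surrounding doses. 4) Unreached endpoint = highest concentration. Here, GI50 denotes the concentration required for 50% inhibition of growth. TGI: concentration producing complete growth inhibition.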

Assays:
Test in all cases: NCI tumour cell line growth inhibition, 48 h
786-0 renal = tested on: 786-0 renal
A498 renal = tested on: A498 renal
A549 NSCLC = tested on: A549 NSCLC
ACHN renal = tested on: ACHN renal
BT-549 breast = tested on: BT-549 breast
CAKI-1 renal = tested on: CAKI-1 renal
CCRF-CEM leukemia = tested on: CCRF-CEM leukemia
COLO 205 colon = tested on: COLO 205 colon
DU-145 prostate = tested on: DU-145 prostate
EKVX NSCLC = tested on: EKVX NSCLC
HCC-2998 colon = tested on: HCC-2998 colon
HCT-116 colon = tested on: HCT-116 colon
HCT-15 colon = tested on: HCT-15 colon
HL-60(TB) leukemia = tested on: HL-60(TB) leukemia
HOP-62 NSCLC = tested on: HOP-62 NSCLC
HOP-92 NSCLC = tested on: HOP-92 NSCLC
HS 578T breast = tested on: HS 578T breast
HT29 colon = tested on: HT29 colon
IGROV1 ovarian = tested on: IGROV1 ovarian
K-562 leukemia = tested on: K-562 leukemia
KM12 colon = tested on: KM12 colon
LOX IMVI melanoma = tested on: LOX IMVI melanoma
M14 melanoma = tested on: M14 melanoma
MALME-3M melanoma = tested on: MALME-3M melanoma
MCF7 breast = tested on: MCF7 breast
MDA-MB-231 breast = tested on: MDA-MB-231 breast
MDA-MB-435 = tested on: MDA-MB-435
MOLT-4 leukemia = tested on: MOLT-4 leukemia
NCI-H226 lung = tested on: NCI-H226 lung
NCI-H23 lung = tested on: NCI-H23 lung
NCI-H460 lung = tested on: NCI-H460 lung
NCI-H522 lung = tested on: NCI-H522 lung
NCI/ADR-RES ovarian = tested on: NCI/ADR-RES ovarian
OVCAR-3 ovarian = tested on: OVCAR-3 ovarian
OVCAR-4 ovarian = tested on: OVCAR-4 ovarian
OVCAR-5 ovarian = tested on: OVCAR-5 ovarian
OVCAR-8 ovarian = tested on: OVCAR-8 ovarian
PC-3 prostate = tested on: PC-3 prostate
RPMI-8226 leukemia = tested on: RPMI-8226 leukemia
RXF 393 renal = tested on: RXF 393 renal
SF-268 CNS = tested on: SF-268 CNS
SF-295 CNS = tested on: SF-295 CNS
SK-MEL-2 melanoma = tested on: SK-MEL-2 melanoma
SK-MEL-28 melanoma = tested on: SK-MEL-28 melanoma
SK-MEL-5 melanoma = tested on: SK-MEL-5 melanoma
SK-OV-3 ovarian = tested on: SK-OV-3 ovarian
SN12C renal = tested on: SN12C renal
SNB-19 CNS = tested on: SNB-19 CNS
SNB-75 CNS = tested on: SNB-75 CNS
SR leukemia = tested on: SR leukemia
SW-620 colon = tested on: SW-620 colon
T-47D breast = tested on: T-47D breast
TK-10 renal = tested on: TK-10 renal
U251 CNS = tested on: U251 CNS
UACC-257 melanoma = tested on: UACC-257 melanoma
UACC-62 melanoma = tested on: UACC-62 melanoma
UO-31 renal = tested on: UO-31 renal

## CC1=C2C(=C[C@@](C)(COS(C)(=O)=O)[C@@H]2O)C(=O)[C@](C)(O)C12CC2
786-0 renal
  GI50: 1.96 µM
  TGI: 6.74 µM
A498 renal
  TGI: 0.694 µM
A549 NSCLC
  GI50: 0.604 µM
  TGI: 6.92 µM
ACHN renal
  GI50: 0.349 µM
  TGI: 3.55 µM
BT-549 breast
  GI50: 0.632 µM
  TGI: 2.47 µM
CAKI-1 renal
  GI50: 0.406 µM
  TGI: 5.36 µM
CCRF-CEM leukemia
  GI50: 0.344 µM
  TGI: > 100 µM
COLO 205 colon
  GI50: 0.761 µM
  TGI: 2.84 µM
DU-145 prostate
  GI50: 0.366 µM
  TGI: 5.04 µM
EKVX NSCLC
  GI50: 1.66 µM
  TGI: 5.22 µM
HCC-2998 colon
  GI50: 0.648 µM
  TGI: 2.87 µM
HCT-116 colon
  GI50: 0.315 µM
  TGI: > 31.7 µM
HCT-15 colon
  GI50: 0.443 µM
  TGI: 5.14 µM
HL-60(TB) leukemia
  GI50: 0.466 µM
  TGI: 4.53 µM
HOP-62 NSCLC
  GI50: 0.371 µM
  TGI: 2.04 µM
HOP-92 NSCLC
  GI50: 0.357 µM
  TGI: 1.48 µM
HS 578T breast
  GI50: 1.77 µM
  TGI: 4.78 µM
HT29 colon
  GI50: 0.414 µM
  TGI: 28.6 µM
IGROV1 ovarian
  GI50: 0.556 µM
  TGI: 5.67 µM
K-562 leukemia
  GI50: 0.478 µM
  TGI: > 100 µM
KM12 colon
  GI50: 0.579 µM
  TGI: 7.13 µM
LOX IMVI melanoma
  GI50: 0.365 µM
  TGI: 1.69 µM
M14 melanoma
  GI50: 0.717 µM
  TGI: 2.54 µM
MALME-3M melanoma
  GI50: 0.459 µM
  TGI: 1.76 µM
MCF7 breast
  GI50: 0.238 µM
  TGI: 2.55 µM
MDA-MB-231 breast
  GI50: 1.34 µM
  TGI: 5.99 µM
MDA-MB-435
  GI50: 0.757 µM
  TGI: 2.21 µM
MOLT-4 leukemia
  GI50: 0.331 µM
  TGI: > 100 µM
NCI-H226 lung
  GI50: 2.12 µM
  TGI: 6.17 µM
NCI-H23 lung
  GI50: 0.35 µM
  TGI: 1.56 µM
NCI-H460 lung
  GI50: 0.216 µM
  TGI: 0.517 µM
NCI-H522 lung
  GI50: 0.347 µM
  TGI: 1.56 µM
NCI/ADR-RES ovarian
  GI50: 0.762 µM
  TGI: 5.97 µM
OVCAR-3 ovarian
  GI50: 0.544 µM
  TGI: 4.53 µM
OVCAR-4 ovarian
  GI50: 1.45 µM
  TGI: 5.68 µM
OVCAR-5 ovarian
  GI50: 0.382 µM
  TGI: 3.06 µM
OVCAR-8 ovarian
  GI50: 1.74 µM
  TGI: 12 µM
PC-3 prostate
  GI50: 0.624 µM
  TGI: 4.82 µM
RPMI-8226 leukemia
  GI50: 3.66 µM
  TGI: 52 µM
RXF 393 renal
  GI50: 0.335 µM
  TGI: 0.93 µM
SF-268 CNS
  GI50: 0.333 µM
  TGI: 2.29 µM
SF-295 CNS
  GI50: 0.293 µM
  TGI: 1.28 µM
SK-MEL-2 melanoma
  GI50: 0.289 µM
  TGI: 0.793 µM
SK-MEL-28 melanoma
  GI50: 0.678 µM
  TGI: 2.5 µM
SK-MEL-5 melanoma
  GI50: 0.272 µM
  TGI: 0.755 µM
SK-OV-3 ovarian
  GI50: 0.447 µM
  TGI: 2.22 µM
SN12C renal
  GI50: 1.99 µM
  TGI: 10.7 µM
SNB-19 CNS
  GI50: 0.477 µM
  TGI: 6.01 µM
SNB-75 CNS
  GI50: 1.37 µM
  TGI: 2.86 µM
SR leukemia
  GI50: 0.36 µM
  TGI: > 100 µM
SW-620 colon
  GI50: 0.32 µM
  TGI: > 100 µM
T-47D breast
  GI50: 1.79 µM
  TGI: 7.78 µM
TK-10 renal
  GI50: 2.22 µM
  TGI: 7.14 µM
U251 CNS
  GI50: 0.286 µM
  TGI: 1.34 µM
UACC-257 melanoma
  GI50: 2.39 µM
  TGI: 6.9 µM
UACC-62 melanoma
  GI50: 0.257 µM
  TGI: 0.731 µM
UO-31 renal
  GI50: 1.57 µM
  TGI: 5.52 µM
